The values below come from patent US5792793A, “Antibacterial, antifungal and antiviral agent” (priority 1993, dated 1998).

Data set [1] relates to Aspergillus flavus. The experiment in a line: Surface-smearing method, Aspergillus flavus. It is filed as cell-based. Particulars: about 10 mg complex, 4 days at 25° C.
The test system of data set [2] is Penicillium chrysogenum. Briefly: Surface-smearing method, Penicillium chrysogenum. It is filed as cell-based. Also noted: key: the proliferation level of the control (=100%, -); +: up to 80% of proliferation with respect to the proliferation level of the control (=100%, -); ++: up to 40% of proliferation; +++: almost complete suppression of proliferation. The settings on record: about 10 mg complex, 4 days at 25° C.

In data set [3] the test system is Cladosporium cladosporoides. Briefly: Surface-smearing method, Cladosporium cladosporoides. It is filed as cell-based. Also noted: key: the proliferation level of the control (=100%, -); +: up to 80% of proliferation with respect to the proliferation level of the control (=100%, -); ++: up to 40% of proliferation; +++: almost complete suppression of proliferation. The settings on record: about 10 mg complex, 4 days at 25° C.

For data set [4], the system named is Fusarium oxysporum. The experiment in a line: Surface-smearing method, Fusarium oxysporum. Particulars: about 10 mg complex, 4 days at 25° C. The class given is cell-based.
Data set [5] concerns E. coli. The experiment in a line: Minimal inhibitory concentration, E. coli. The class given is cell-based. The settings on record: SCD liquid medium, 48 hours at 35° C.
Data set [6] concerns S. aureus. The experiment in a line: Minimal inhibitory concentration, S. aureus. The class given is cell-based. The settings on record: SCD liquid medium, 48 hours at 35° C.
The test system of data set [7] is B. subtilis. The experiment in a line: Minimal inhibitory concentration, B. subtilis. The settings on record: SCD liquid medium, 48 hours at 35° C.
Description: (§1) (b) Method for measuring antibacterial activity based on a minimal inhibitory concentration (MIC)
(§2) A bacterium was inoculated in a soybean casein digest (SCD) liquid medium (5 ml) and precultured for 24 hours at 35° C. The precultured bacterial liquid was diluted so as to obtain a 100-fold diluted liquid (0.1 ml), and was inoculated into an SCD liquid medium containing a thiol-silver complex (2 ml). After performing shaking culture for 48 hours at 35° C., presence or absence of proliferation was assessed.
Data set [8] has as its system C. albicans. The experiment in a line: Minimal inhibitory concentration, C. albicans. The settings on record: GP liquid medium, 48 hours at 35° C.
Description: (§3) Yeast was inoculated in a glucose-peptone (GP) liquid medium (5 ml) and precultured for 24 hours at 35° C. The precultured bacterial liquid was diluted so as to obtain a 100-fold diluted liquid (0.1 ml), and was inoculated into a GP liquid medium containing a thiol-silver complex (2 ml). After performing shaking culture for 48 hours at 35° C., presence or absence of proliferation was assessed.
Data set [9] relates to P. aeruginosa. Briefly: Minimal inhibitory concentration, P. aeruginosa. The settings on record: SCD liquid medium, 48 hours at 35° C.
Description: as §1, §2
Data set [10] relates to S. cerevisiae. Briefly: Minimal inhibitory concentration, S. cerevisiae. The settings on record: GP liquid medium, 48 hours at 35° C.
Description: as §3
Data set [11] is described as follows: Solubility in water. The settings on record: 20° C.
A short description of data set [12]: Stability against exposure to light (color difference). The class given is physicochemical. The procedure:
To 10 mg of each of the thiol-silver complexes shown in Table 9 to be tested, 1 ml of ethanol was added and then sonicated so as to disperse particles. The dispersed particles were uniformly fixed onto a Kiriyama filter paper (No. 3, diameter: 21 mm) by the application of a suction force. After drying, test pieces of the filter paper were sandwiched between colorless transparent plastic films (each having a thickness of 0.1 mm) and the peripheries were sealed.
The test pieces were exposed to sunlight outdoors on a sunny day. During the test, they were placed such that their surfaces received direct rays of the sun at an incidence angle of approximately 90°.
Measurement was performed using a color difference meter CR-300 (using D65 rays) manufactured by Minolta Camera Co., Ltd. Six hours after exposure to sunlight, measurement was reiterated 4 times and the data were averaged.

Data set [13] deals with mice. The experiment in a line: Peroral toxicity, single dose. Particulars: for Dead mice/Total mice: day 14. The class given is in vivo, mice (ICR, male).
The test system of data set [14] is human cytomegalovirus (HCMV). Briefly: Anti-HCMV activity, Experiment 1. It is filed as cell-based. The settings on record: 10 μg/ml; Experiment 1, HCMV 1×10^3 pfu/ml, HEL cells, 72 hours; control 30.
The subject of data set [15] is human cytomegalovirus (HCMV). The experiment in a line: Anti-HCMV activity, Experiment 2 (1). It is filed as cell-based. Particulars: HCMV 1×10^4 pfu/ml, medium not changed, 72 hours, control 390.
Data set [16] relates to human cytomegalovirus (HCMV). The experiment in a line: Anti-HCMV activity, Experiment 2 (2). The settings on record: HCMV 1×10^4 pfu/ml, washed after 1 hour adsorption, 72 hours, control 120. It is filed as cell-based.
Setting [17] is: after exposure to sunlight, six hours.

On to 2-Naphthalenethiol-silver complex [#3], for which the “antibacterial activity ranking, surface-smearing method” value (“antibacterial activity ranking” below) in data set [1] was “+ (up to 80% of proliferation with respect to the proliferation level of the control (=100%, -))”; in data set [2], “+ (up to 80% of proliferation with respect to the proliferation level of the control (=100%, -))”; in [3], “+++”; in [4], “- (the proliferation level of the control (=100%, -))”. The “Minimal Inhibitory Concentration” value is 8 µg/mL in [5]; 250 µg/mL in data set [6]; below 2 µg/mL in [7]; 125 µg/mL in [8]; 250 µg/mL in [9]; 62.5 µg/mL in data set [10].

Regarding “5-Mercapto-(1H)tetrazoylacetic acid-silver complex.Na [#16-b]”, the “antibacterial activity ranking” value in data set [1] was “+ (up to 80% of proliferation with respect to the proliferation level of the control (=100%, -))”; in data set [2], “+++”; in data set [3], “+++”; in data set [4] it was “++ (up to 40% of proliferation)”. In addition, the “Minimal Inhibitory Concentration” value in data set [5] turned out to be 16 µg/mL; in [6], 32 µg/mL; in data set [7], 32 µg/mL; in data set [8], 250 µg/mL; in data set [9] it was 16 µg/mL; in data set [10], 125 µg/mL.

Take `[Cl][Ag]` [silver chloride]: in data set [11], the “solubility, in water” value is given as “less than 1 % by weight”.

Take “Thiosalicylic acid-silver complex [#1L-8H]”: the “antibacterial activity ranking” value in [1] is recorded as “- (the proliferation level of the control (=100%, -))”; in [2] it was “++ (up to 40% of proliferation)”; in data set [3], “+++”; in [4] it was “++ (up to 40% of proliferation)”. Besides, the “Minimal Inhibitory Concentration” value is below 2 µg/mL in data set [5]; 16 µg/mL in data set [6]; below 2 µg/mL in data set [7]; 1000 µg/mL in data set [8]; 16 µg/mL in data set [9]; 125 µg/mL in data set [10]. Moreover, the “L* (L*a*b* color representation)” value came out at 65.4 in [12] (setting [17]) and 83.1 in [12] (before exposure to sunlight). Also, the “a* (L*a*b* color representation)” value in [12] (setting [17]) was found to be 8.3; in data set [12] (before exposure to sunlight), 13.2. Also, the “b* (L*a*b* color representation)” value in [12] (setting [17]) was determined as 40.1; in data set [12] (before exposure to sunlight), 66.4. For the same molecule, the “Dead mice/Total mice” value in [13] (1762 mg/kg peroral single dose) is on record as 0/5; in data set [13] (2291 mg/kg peroral single dose), 0/5; in [13] (2978 mg/kg peroral single dose) it was 0/4; in data set [13] (3871 mg/kg peroral single dose), 0/4. Also, in [13] (peroral, single dose, ICR male mice, 20160 min), the LD50 result is given as “not less than 3.9 g/kg”. The “number of cells positive in fluorescent staining (single field of vision)” value is on record as 5 in data set [14]; 280 in data set [15] (1 μg/ml); 240 in data set [15] (10 μg/ml); 100 in data set [15] (50 μg/ml); 30 in data set [16] (1 μg/ml); 30 in [16] (10 μg/ml). In data set [16] (50 μg/ml), the “number of cells positive in fluorescent staining (single field of vision)” value is reported as 20.

α-Thioglycerol-silver complex [#14-b]: the “antibacterial activity ranking” value in data set [1] is on record as “- (the proliferation level of the control (=100%, -))”; in [2], “+ (up to 80% of proliferation with respect to the proliferation level of the control (=100%, -))”; in [3] it was “++ (up to 40% of proliferation)”; in data set [4], “- (the proliferation level of the control (=100%, -))”. Moreover, the “Minimal Inhibitory Concentration” value was 250 µg/mL in [6]; 250 µg/mL in data set [7]; above 1000 µg/mL in [8]; 62.5 µg/mL in data set [9]; 250 µg/mL in data set [10].
